Measurements as given in patent publication US20160279187A1, “CALPAIN INHIBITORS FOR IBD AND COLORECTAL CANCER TREATMENT” (UNIVERSITY OF HAWAII, priority 2013, published 2016).
Where a SMILES comes first, the peptide text is derived from it. The star is where a group is joined. Cbz = O=C(OCc1ccccc1)*; CH2F = FC*

Legend:
[1] = tested on: IκB / NFκB in HT-29 cells; experiment: IκB and nuclear NFκB western blot, HT-29; format: cell-based, human; conditions: HT-29, vs DMSO
Experimental: (§1) Bone marrow derived macrophages (BMDM) were prepared as previously described by methods known to those skilled in the art. On day 5 of culture, 2×10^6 BMDM were seeded in 6-well plates and the following day were primed for 18 h with TNFα (20 ng/mL), followed by 1 h stimulation with E. faecalis (1 μg/mL; ATCC). Stimulation with E. faecalis was conducted in the presence of the zLLY-CH2F calpain-2 inhibitor (20 μg/mL) or DMSO as a control. Media was removed from treated BMDM, centrifuged at 300×g for 5 min and supernatent analyzed using the Cytometric Bead Array Mouse Inflammation Kit (BD Biosciences, San Jose, Calif.). Cytokine data were analyzed using Flowjo software (Ashland, Oreg.) and GraphPad Prism version 4.0 (GraphPad, La Jolla, Calif.). Cell pellets were lysed and analyzed for IκB and NFκB by Western blot as previously described (Miyazaki, T. et al. Journal of Atherosclerosis and Thrombosis 20, 228-237, 2013). […] Each day 4 wells were quantified using Celltiter MTS reagent (Promega) and the resulting signal was used to generate a proliferation curve. Calpain activity was measured using a Calpain activity assay kit (BioVision, Inc., Milpitas, Calif.) as previously described. Colons were harvested on day 4 and calpain activity measured. […]

cathespin L = cathespin L (Homo sapiens, UniProt P07711); conditions: off-target protein; Li et al., Biochemistry 2006; cited from earlier work
[2] = tested on: calpain activity in the colon tissue; experiment: DSS dose-response, calpain activity in colon tissue; format: in vivo, mice; conditions: 2% DSS 4 days
Experimental: as §1

[3] = tested on: HT-29 human colorectal cancer cells; experiment: proliferation assay (MTS), HT-29; format: cell-based; conditions: HT-29, 20 μg/ml, vs DMSO
Experimental: as §1

μ-calpain = target: T1, μ-calpain (Homo sapiens, UniProt P07384); conditions: off-target; cited from earlier work
T1 sequence (P07384 1-714): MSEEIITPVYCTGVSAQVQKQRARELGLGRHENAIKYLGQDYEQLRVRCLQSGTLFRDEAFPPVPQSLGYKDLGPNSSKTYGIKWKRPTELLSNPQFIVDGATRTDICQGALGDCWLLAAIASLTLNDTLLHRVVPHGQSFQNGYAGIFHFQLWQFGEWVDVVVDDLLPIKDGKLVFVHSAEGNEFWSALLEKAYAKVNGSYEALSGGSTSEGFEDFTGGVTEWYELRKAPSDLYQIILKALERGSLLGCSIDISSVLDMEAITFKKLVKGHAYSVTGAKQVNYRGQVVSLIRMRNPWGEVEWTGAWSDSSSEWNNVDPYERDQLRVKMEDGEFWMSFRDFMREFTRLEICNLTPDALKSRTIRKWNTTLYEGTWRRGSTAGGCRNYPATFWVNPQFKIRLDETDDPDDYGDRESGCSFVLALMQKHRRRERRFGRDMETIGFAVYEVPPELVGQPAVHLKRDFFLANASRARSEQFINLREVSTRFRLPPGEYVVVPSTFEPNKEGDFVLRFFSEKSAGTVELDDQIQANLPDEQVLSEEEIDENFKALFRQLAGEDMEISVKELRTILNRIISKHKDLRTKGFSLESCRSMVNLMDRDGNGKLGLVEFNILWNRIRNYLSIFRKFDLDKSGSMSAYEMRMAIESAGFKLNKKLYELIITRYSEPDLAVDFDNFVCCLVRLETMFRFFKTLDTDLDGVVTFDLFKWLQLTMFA

Sequence of cathespin L (P07711 114-333): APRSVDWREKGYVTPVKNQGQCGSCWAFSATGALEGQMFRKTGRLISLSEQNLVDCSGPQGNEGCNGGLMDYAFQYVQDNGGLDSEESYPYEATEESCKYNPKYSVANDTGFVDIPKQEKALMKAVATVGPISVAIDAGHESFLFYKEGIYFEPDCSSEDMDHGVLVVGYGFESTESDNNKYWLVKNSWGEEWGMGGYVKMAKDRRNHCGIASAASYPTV

CC(C)C[C@H](NC(=O)OCc1ccccc1)C(=O)N[C@@H](CC(C)C)C(=O)N[C@@H](Cc1ccc(O)cc1)C(=O)CF [zLLY-CH2F, Z-LLY-CH2F] (Cbz-Leu-Leu-Tyr-CH2F)
IκB degradation [1]: reduced | NFκB nuclear localization [1]: reduced | rate constant k2, inhibition of cathespin L (cathespin L): 680,000 M^−1s^−1 | total calpain activity reduced by ([2]; daily i.p. injection, 0.75 mg/kg): 50% | dose at which the maximum amount of calpain activity inhibition was achieved ([2]; i.p., 0-1.25 mg/kg tested): 0.75 mg/kg | proliferation [3]: reduction | inhibition of μ-calpain (μ-calpain): not known to inhibit
